Test results published in paper PMC6152211 (Molecules : A Journal of Synthetic Chemistry and Natural …, 2017).
Where two headings read alike, the source gives them in different places. Blank lines part the entries; values can stand above or below the molecule they belong to.

Legend:
CYP1A2 = settings: cited from earlier work
[1] = Herbal drug pharmacokinetic interaction study of sorafenib in rat plasma (Part A); assay type: in vivo, Male Sprague-Dawley rats; settings: for bioavailability: read-out: F (oral bioavailability)
Description: The jugular-catheterized rats were randomly divided into four groups, Groups A1–A4, as described above. […] […] […] Data from these samples were used to construct pharmacokinetic profiles by plotting drug concentrations versus times.

rat liver [2] = test: Hepatotoxicity study: serum AST and ALT levels (Part D); assay type: in vivo
Method: (§1) Hepatotoxicity and histopathological experiments were performed on 42 jugular-catheterized rats that were randomly divided into Groups D1–D7 containing six animals, as described above. In the “Part D” study, an aqueous solution of the LDXGT formulation and sorafenib were each administered to rats by oral gavage. Blood samples were collected from the jugular vein at 0, 0.5 and 1 h after dosing for the […] group. […] Serum was obtained by centrifugation. The levels of the AST and ALT enzymes were determined using an automatic biochemical analysis. After blood sampling, the livers were dissected from the rats in each group and prepared using a series of processes.

[3] = Phase I CYP3A4 metabolism study: sorafenib pharmacokinetics after pretreatment with grapefruit juice or ketoconazole (Part B); settings: for F (oral bioavailability) / CL: then single sorafenib 10 mg/kg p.o., mean ± SD, n = 6; for F (oral bioavailability): compared to Group A1 (3 mg/kg, i.v.), rat
rat liver [4] = test: Histopathological analysis of liver slices, H&E staining (Part D); assay type: in vivo
Method: Histopathological analyses were performed to quantitatively evaluate the degree of liver inflammation in our experimental model using a morphometric examination of liver sections and Modified Hepatic Activity Index Grading (Modified HAI Grading; Necroinflammatory Score).
as §1

CYP3A4 = settings: cited from earlier work
[5] = dog plasma, cited from earlier work
[6] = rat plasma, cited from earlier work; for share of AUC in plasma: metabolite of sorafenib
[7] = human plasma, cited from earlier work
[8] = Group A2: sorafenib 10 mg/kg, p.o. alone, rat plasma, mean ± SD, n = 6
[9] = Group A4: LDXGT formulation 2 g/kg/day p.o. for 5 consecutive days, then single sorafenib 10 mg/kg p.o., rat plasma, mean ± SD, n = 6
[10] = male, Sprague-Dawley, rat, plasma, iv, 3 mg/kg, Group A1: sorafenib 3 mg/kg, i.v., rat plasma, mean ± SD, n = 6
[11] = male, Sprague-Dawley, rat, plasma, po, 10 mg/kg, Group A2: sorafenib 10 mg/kg, p.o. alone, rat plasma, mean ± SD, n = 6
[12] = male, Sprague-Dawley, rat, plasma, po, 10 mg/kg, Group A3: LDXGT formulation 1 g/kg/day p.o. for 5 consecutive days, then single sorafenib 10 mg/kg p.o., rat plasma, mean ± SD, n = 6
[13] = male, Sprague-Dawley, rat, plasma, po, 10 mg/kg, Group A4: LDXGT formulation 2 g/kg/day p.o. for 5 consecutive days, then single sorafenib 10 mg/kg p.o., rat plasma, mean ± SD, n = 6

Structure (SMILES): O=C(O)[C@H]1O[C@@H](Oc2cc3oc(-c4ccccc4)cc(=O)c3c(O)c2O)[C@H](O)[C@@H](O)[C@@H]1O [baicalin]
effect on CYP1A2 activity (CYP1A2; in vitro, baicalin in human liver microsomes): inhibits

time after administration at which maximal plasma concentrations (Cmax) were observed ([1]; Group A2: single sorafenib 10 mg/kg, p.o., rat plasma, approximately): 3 to 8 h | CL [1, 8]: 1.8 ± 0.7 mL/min/kg | Vss [1, 8]: 1564 ± 477 mL/kg | CL ([1]; Group A3: LDXGT formulation 1 g/kg/day p.o. for 5 consecutive days, then single sorafenib 10 mg/kg p.o., rat plasma, mean ± SD, n = 6): 2.1 ± 0.8 mL/min/kg | F (oral bioavailability) ([1]; Group A4: LDXGT formulation 2 g/kg/day p.o. for 5 consecutive days, then single sorafenib 10 mg/kg p.o., compared to Group A1 (3 mg/kg, i.v.), rat, mean ± SD, n = 6): 49 ± 5.0% | CL [1, 9]: 1.8 ± 0.2 mL/min/kg | Vss [1, 9]: 1565 ± 231 mL/kg | time after administration at which maximal plasma concentrations were reached ([1]; each of Groups A2–A4 (sorafenib 10 mg/kg p.o. alone or after LDXGT 1 or 2 g/kg/day), rat plasma, approximately): 3 to 8 h | concentration at 8 min ([1]; male, Sprague-Dawley, rat, plasma, intravenous, 3 mg/kg): 2840 ng/mL | clearance ([1]; male, Sprague-Dawley, rat, plasma, iv, 3 mg/kg): 1.1 ± 0.4 mL/min/kg | AUC [1, 10]: 56000 ng·h/mL | Cmax [1, 10]: 4600 ± 200 ng/mL | half-life [1, 10]: 499 ± 275 min | Vd ([1]; male, Sprague-Dawley, rat, plasma, iv, 3 mg/kg, read-out: Vss): 1.19 ± 0.129 L/kg | bioavailability ([1]; male, Sprague-Dawley, rat, plasma, po, 10 mg/kg, Group A2: sorafenib 10 mg/kg, p.o. alone, compared to Group A1 (3 mg/kg, i.v.), rat, mean ± SD, n = 6): 56 ± 20% | AUC [1, 11]: 104000 ng·h/mL | Cmax [1, 11]: 5000 ± 1400 ng/mL | Tmax [1, 11]: 7 h | half-life [1, 11]: 629 ± 118 min | AUC [1, 12]: 94200 ng·h/mL | Cmax [1, 12]: 4800 ± 1000 ng/mL | Tmax [1, 12]: 6.33 h | half-life [1, 12]: 649 ± 192 min | AUC [1, 13]: 91500 ng·h/mL | Cmax [1, 13]: 4800 ± 700 ng/mL | Tmax [1, 13]: 5.17 h | half-life [1, 13]: 594 ± 153 min | bioavailability ([1]; male, Sprague-Dawley, rat, plasma, po, 10 mg/kg): 50 ± 24% | pharmacokinetic properties across doses (concentration versus time profile) ([1]; pilot study, single dose 10, 20 and 40 mg/kg, p.o., rat plasma): dose-dependent | F (oral bioavailability) ([3]; Group B1 (GFJ3): grapefruit juice 3 mL/day p.o. for 5 consecutive days): 45 ± 11% | CL ([3]; Group B1 (GFJ3): grapefruit juice 3 mL/day p.o. for 5 consecutive days, rat plasma): 2.0 ± 0.4 mL/min/kg | F (oral bioavailability) ([3]; Group B2 (GFJ6): grapefruit juice 6 mL/day p.o. for 5 consecutive days): 39 ± 14% | CL ([3]; Group B2 (GFJ6): grapefruit juice 6 mL/day p.o. for 5 consecutive days, rat plasma): 2.6 ± 1.1 mL/min/kg | F (oral bioavailability) ([3]; Group B4 (KCZ40): ketoconazole 40 mg/kg/day p.o. for 5 consecutive days): 42 ± 14% | CL ([3]; Group B4 (KCZ40): ketoconazole 40 mg/kg/day p.o. for 5 consecutive days, rat plasma): 2.3 ± 0.8 mL/min/kg | time after administration at which maximal plasma concentrations were achieved ([3]; each of Groups A2, B1–B4 (sorafenib 10 mg/kg p.o. alone or after grapefruit juice or ketoconazole), rat plasma, approximately): 3 to 8 h | bioavailability ([3]; male, Sprague-Dawley, in vivo, po, 10 mg/kg): 52 ± 4.3%
Structure (SMILES): CNC(=O)c1cc(Oc2ccc(NC(=O)Nc3ccc(Cl)c(C(F)(F)F)c3)cc2)ccn1 [sorafenib, Sorafenib]
liver function (AST and ALT) (rat liver [2]; repeated sorafenib 10 mg/kg for 2 weeks alone or combined with LDXGT, Groups D5–D7): marked elevation | liver function (AST and ALT) (rat liver [2]; single sorafenib dose 10 mg/kg p.o. alone or after LDXGT pretreatment, among Groups D2–D4, 0, 3 and 6 h after dosing): No significant difference | liver histopathology (H&E staining) (rat liver [4]; repeated administration groups, Groups D5–D7 (sorafenib 10 mg/kg for 2 weeks, alone or with LDXGT)): marked focal inflammation, portal inflammation, focal hemorrhage and congestion, focal lytic necrosis and hepatocyte apoptosis, liver cell degeneration and disrupted intercellular cohesion | liver histopathology (H&E staining) (rat liver [4]; single-dose groups, Groups D1–D4 (sorafenib 3 mg/kg i.v. or 10 mg/kg p.o., alone or after LDXGT)): focal inflammation, portal inflammation, focal hemorrhage and congestion, focal lytic necrosis and hepatocyte apoptosis

Structure (SMILES): C=C[C@@H]1C2=CCOC(=O)C2=CO[C@H]1O[C@@H]1O[C@H](CO)[C@@H](O)[C@H](O)[C@H]1O [gentiopicroside]
effect on CYP3A4 enzyme activity (CYP3A4): significant increase | effect on CYP1A2 activity (CYP1A2; microsomes): significant increase

Structure (SMILES): CC(=O)N1CCN(c2ccc(OCC3COC(Cn4ccnc4)(c4ccc(Cl)cc4Cl)O3)cc2)CC1 (stereo not drawn) [ketoconazole]
effect on the pharmacokinetics of a single oral sorafenib dose ([3]; ketoconazole 400 mg/kg/day, sorafenib 10 mg/kg p.o., rats): did not affect

Structure (SMILES): NC(=O)c1cc(Oc2ccc(NC(=O)Nc3ccc(Cl)c(C(F)(F)F)c3)cc2)ccn1 [M-4]
presence of the metabolite in plasma [5]: detected | presence of the metabolite in plasma [6]: detected | presence of the metabolite in plasma [7]: detected

Structure (SMILES): O=c1cc(-c2ccccc2)oc2cc(O)c(O)c(O)c12 [baicalein]
effect on CYP3A4 enzyme activity (CYP3A4): inhibited

Structure (SMILES): O=C(Nc1ccc(Oc2ccnc(C(=O)NCO)c2)cc1)Nc1ccc(Cl)c(C(F)(F)F)c1 [M-3]
share of AUC in plasma ([5]; metabolite of sorafenib): 15.6 % of AUC | share of AUC in plasma [6]: 12.1 % of AUC

Structure (SMILES): CNC(=O)c1cc(Oc2ccc(NC(=O)Nc3ccc(Cl)c(C(F)(F)F)c3)cc2)cc[n+]1[O-] [M-2]
presence of the metabolite in plasma [5]: absent | share of AUC in plasma [6]: 0.9 % of AUC | share of AUC in plasma ([7]; metabolite of sorafenib): 16.7 % of AUC
